Reference: US9291621B2, “AGER-peptides and use thereof” (AbbVie Deutschland GmbH & Co. KG, priority 2005, dated 2016)

How the values were obtained:
[1] = system: hippocampal sections (CA1 region); experiment: Excitatory synaptic transmission and long-term potentiation in hippocampal sections; format: cell-based, male Wistar rats; settings: for effect on short-term and long-term potentiation: theta burst stimulation, p=0.016 (NtermR31), p=0.794 (scraNtermR31), repeated measures ANOVA
Method: 400 μm-thick transverse hippocampal sections from 7-8-week-old male Wistar rats (Harlan Winkelmann, Bochum, Germany) were prepared using a tissue chopper and equilibrated for at least 1 hour at 33° C. in Carbogen-gassed artificial cerebrospinal fluid (aCSF) of the following composition: NaCl 124 mM; KCl 4.9 mM; MgSO4 1.3 mM; CaCl2 2.5 mM; KH2PO4 1.2 mM; NaHCO3 25.6 mM; glucose 10 mM; pH 7.4. Recordings were made from the section immersed in Carbogen-gassed artificial cerebrospinal fluid (aCSF) of the same composition.
Stimulation of the Schaffer collaterals took place in the stratum radiatum using a monopolar stimulating electrode with biphasic pulse (voltage range 1-5 V). Excitatory post-synaptic potentials (EPSPs) were recorded in the stratum radiatum using aCSF-filled glass electrodes against a chlorinated silver reference electrode (bath). These reflect in particular the strength of the glutamatergic synaptic transmission.
The values were determined from the gradient of the field EPSPs recorded every 5 min for a period of 120 minutes before and 120 minutes after LTP induction. LTP was induced by so-called theta burst stimulation (4×2 pulses at an interval of 200 ms with a double-pulse interval of 10 ms). […]

[2] = target: T1, sRAGE-6×HIS (amino acids 23-352, NP_001127) (Homo sapiens, UniProt Q15109); experiment: AlphaScreen measurement of peptide binding to sRAGE; settings: for binding to the receptor (AlphaScreen): biotinylated control peptides 0, 10, 30, 100, 300 nM
T1 construct: fusion protein sRAGE-6×HIS (amino acids 23-352, NP_001127); made in house
T1 sequence (Q15109 with tags, fused parts or gaps): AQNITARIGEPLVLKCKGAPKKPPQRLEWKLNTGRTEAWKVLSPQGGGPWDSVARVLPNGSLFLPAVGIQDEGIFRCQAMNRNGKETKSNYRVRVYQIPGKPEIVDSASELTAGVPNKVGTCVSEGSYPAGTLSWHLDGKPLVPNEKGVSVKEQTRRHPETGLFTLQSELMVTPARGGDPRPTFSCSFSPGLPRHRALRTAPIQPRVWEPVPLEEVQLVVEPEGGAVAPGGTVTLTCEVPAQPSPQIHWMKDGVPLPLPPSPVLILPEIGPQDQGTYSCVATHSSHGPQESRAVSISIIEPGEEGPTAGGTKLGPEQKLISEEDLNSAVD
Method: The entire homogeneous assay was carried out in 25 mM HEPES, 100 mM NaCl of pH 7.4 and 0.1% BSA in a volume of 20 μl.
(§1) The individual components were brought together in a defined time sequence. […] The various amounts of peptide were then added in order, after a further 30 minutes, to add the donor beads. After a further 60 minutes, the fluorescence was measured in the AlphaQuest instrument from Perkin-Elmer with a time lag of one second. Each measured point was determined as triplicate. The analysis and graphical workup of the results took place with the GraphPrism 4.0 software package.
The binding to the RAGE receptor was measured by employing the AlphaScreen™ System (order number: 6760610M) from Perkin Elmer (Shelton, Conn., USA).
The assay was carried out by the manufacturer's protocol in 25 mM HEPES, 100 mM NaCl of pH 7.4 and 0.1% BSA in a volume of 20 μl. The mixture comprised 2.5 ng/μl of the fusion protein sRAGE-6×HIS (amino acids 23-352, NP_001127), 20 ng/μl anti-HIS acceptor beads, 20 ng/μl streptavidin donor beads and the biotinylated peptides in concentrations of 0, 10, 30, 100, and 300 nM. The peptides, with the exception of AR 1-42 oligomers, were heated at 50° C. for 10 minutes immediately before the test in order to loosen possible aggregations.
as §1, with “evaluation” for “analysis”

[3] = target: sRAGE/Aβ globulomer interaction (Homo sapiens, UniProt P05067); settings: for inhibition of Aβ oligomer binding to sRAGE: increasing peptide concentrations, Aβ 1/5 biotin globulomer 800 nM
Sequence of sRAGE/Aβ globulomer interaction (P05067 672-713 limits assumed): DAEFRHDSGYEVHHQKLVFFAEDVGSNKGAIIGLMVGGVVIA
Method: The HTRF donor and acceptor components, Anti6HIS europium cryptate (CIS Bio catalogue number: 61HISKLA; 500 wells/13 μg) and streptavidin XL-665 (CIS Bio catalogue number: 61HISAXLA, 500 wells/250 μg) were each dissolved in 250 μl of dd H2O, Starting from these stock solutions, 1:50 working dilutions were prepared with a final concentration of 7.4 nM Anti6His cryptates and 121.2 nM streptavidin XL-665 in PBS, 0.1% BSA, pH 7.4.
Working solutions of peptides 6 and 7 were prepared with concentrations of 200 μM, 100 μM, 50 μM, 25 μM, 12.5 μM, 6.25 μM, 3.125 μM, 1.56 μM and 0.78 μM.
To carry out the tests, initially 4 μl of the working solutions of each of peptides 6 and 7, and of a buffer control, were mixed with 4 μl of a 4 μM stock solution of the Aβ 1/5 biotin globulomer (final assay concentration 800 nM) and incubated at room temperature for one hour. The A beta 1/5 biotin globulomer concentration indicated here is based on the Aβ 1-42 monomers which were used to prepare the globulomers.
2 μl portions of the 7.4 nM Anti6His cryptates and of the 121.2 nM streptavidin solution described above were added in order then to incubate this mixture, now at 4° C., for a further two hours. After addition of 4 μl of a 2M KF stock solution, the complete mixture was measured in a BMG Pherastar fluorescence measuring instrument (BMG Labtech GmbH, Offenburg, Germany) in HTRF mode. Separate measurements without peptide were carried out for the max-signal curve. For the background curve, measurements were used with in each case only the AntiGHIS cryptates and strepavidin XL solutions. The calculated % DeltaF values were transferred into GraphPad Prism 4 (GraphPad Software, San Diego, USA) and evaluated. The concentrations indicated in the graphs are based on the final concentration of the complete 20 μl mixture.

[4] = system: HEK293 RhoA/NgR/p75 cells; experiment: Functional actin cytoskeletal rearrangement (ACR) assay; format: cell-based, human; settings: preincubation 0.2, 1, 5 μM; stimulation with AP-Nogo-66 (9.6 μg/ml)
Method: 1×10^4 cells were […] into microtiter plates with 96 wells two days before the stimulation. The cells were stimulated with a suitable reagent (e.g. LPA or AP-Nogo-66) in culture medium (RPMI-Glutamax) comprising 5% FCS. After a stimulation period of 5 to 10 minutes, the activation was stopped with cold PBS. The cells were fixed with 3-4% strength paraformaldehyde solution, permeabilized with PBS comprising 0.2% Triton X-100, and incubated with phalloidin Alexa 568 or 488 for 30-45 minutes. Incubation with DAPI additionally took place for 5 minutes for nuclear staining. The cells were visualized with the aid of an epifluorescence microscope (Axiovert 25).
1×10^4 Hek293 RhoA/NgR/p75 cells were transferred into MTP Biocoat microtiter plates with 96 wells two days before the actual start of the test. […] The cells were stimulated with the NgR ligand AP-Nogo-66 (9.6 μg/ml) in culture medium comprising 5% FCS. An unstimulated control mixture (without AP-Nogo66) was prepared for each series of tests. After a stimulation period of 5 to 10 minutes, the activation was stopped with cold PBS. […] were recorded with a cooled CCD camera from Zeiss, and the percentage content of contracted cells, based on the total cell count, was found.

[5] = biotinylated control peptides 0-300 nM

APLACPRELIKGKWEVKPKRNPKNQLTIGQL [ScraNtermR31]
effect on short-term and long-term potentiation ([1]; 500 nM): no effect

E T E D S D T [Minus7]
binding to the receptor (AlphaScreen) [2]: no bonding

F P V I P A L F W I V L M [Unpol13]
binding to the receptor (AlphaScreen) [2]: no bonding

F S R I R A T H W R V D G [AlterCharge1]
binding to the receptor (AlphaScreen) [2]: binding

GKPRAPKCLKPEQ [ScraNtermR13]
affinity to sRAGE compared with NtermR13 [2, 5]: same or slightly higher affinity | maximum signal intensity in the test [2, 5]: highest maximum signal intensity

LPRHRALRTAPIQPRVWEPVPLEEVQLVVE [peptide 7]
inhibitory activity, peptide 7 compared with peptide 6 [3]: more pronounced | inhibition of Aβ oligomer binding to sRAGE [3]: Inhibition

QNITARIGEPLVLKCKGAPKKPPQRLEWKLN [NtermR31]
percentage content of contracted HEK cells [4]: concentration-dependent reduction | input/output ratio ([1]; 500 nM): unaffected | effect on short-term and long-term potentiation ([1]; 500 nM): distinctly suppresses | effect on basal synaptic transmission ([1]; application for 90 minutes): no effect

R L K R G H A [Plus7]
maximum signal intensity in the test [2, 5]: highest maximum signal intensity

TLQSELMVTPARGGDPRPTFSCSFSPGLPR [peptide 6]
inhibition of Aβ oligomer binding to sRAGE [3]: Inhibition
